Laboratory results: US4136192A, “4-Hydroxy-3-nitro (cyano) coumarins” (Beecham Group Limited, priority 1975, dated 1979)
Like-named read-outs stand apart in the source and are kept apart here.

Tested on: slow reacting substance of anaphylaxis (SRS-A)
Assay: SRS-A antagonism on isolated guinea pig ileum
Set-up: species or system guinea pig ileum (SRS-A from rat)
Conditions: rat SRS-A
Text: The compounds have been evaluated as direct antagonists of slow reacting substance of anaphylaxis (SRS-A) by assay using the isolated guinea pig ileum.
SRS-A rat was obtained from the peritoneal cavity of the rat after passive peritoneal anaphylaxis by a method based on that of R. P. Orange, D. J. Stechschulte and K. F. Austen, J. Immunology, 105 1087 (1970) as described by B. A. Spicer, J. W. Ross and H. Smith, Clin. exp. Immunol. 1975, 21, 419. The sensitizing serum containing reaginic antibody was produced in rats as described by B. A. Spicer, et. al. ibid.
2 ml of a 1 in 5 dilution of the sensitizing serum was injected by the peritoneal route into recipient rats and after 2 hours, 5 ml of tyrode solution containing 0.4 mg/ml ovalbumin (Sigma Grade III) and 50 μg/ml heparin was injected by the same route. Five minutes after challenge the rats were stunned and bled and the peritoneal fluids collected into polycarbonate tubes in ice. After centrifugation at 150 g for 5 minutes the supernatants were combined, heated in a boiling water bath for 5 minutes, cooled and stored at -20° C. The combined peritioneal fluids contained SRS-A and were used in the antagonism studies.
The SRS-A assays were carried out on isolated strips of guinea pig ileum in tyrode solution containing atropine 5 × 10^-7 M and mepyramine 10^-6 M as described by W. E. Brocklehurst, J. Physiology, 151, 416 (1960).
The activity of the antagonists was determined by their ability to reduce submaximal responses induced by SRS-A. The antagonists were added to a 4 ml bath in 0.1 ml volumes in aqueous solution half a minute before the addition of SRS-A and were present during induced contraction. Two or three concentrations of antagonists were used and the percentage inhibition of the SRS-A response plotted against the bath concentration of antagonist. The line of best fit was drawn and the concentration to cause 50% inhibition IC50 read graphically.

[1] = isolated guinea pig ileum strips, tyrode with atropine and mepyramine, 50% inhibition per method, read-out: SRS-A antagonism on Guinea Pig Ileum: Approximate concentration to give inhibition of a than maximal response to SRS-A
[2] = second results table, unit inferred, isolated guinea pig ileum, read-out: SRS-A antagonism on Guinea Pig ileum: Approximate concentration to give 50% inhibition of a less than maximal response to SRS-A

Row | SMILES | IC50 [1] | IC50 [2]
1 | O=c1oc2cc(OCCc3ccccc3)ccc2c(O)c1[N+](=O)[O-] [Example 116, 4-Hydroxy-3-nitro-7-(2-phenylethoxy) coumrin] | 1000 nM | 
2 | O=c1oc2cc(OCCCCc3ccccc3)ccc2c(O)c1[N+](=O)[O-] [Example 121, 4-Hydroxy-3-nitro-7-(4-phenylbutoxy) coumarin] | 1000 nM | 
3 | O=c1oc2cc(OCCCCc3ccc(Cl)cc3)ccc2c(O)c1[N+](=O)[O-] [Example 122, 7-(4-[4-Chlorophenyl]butoxy)-4-hydroxy-3-nitrocoumarin] | 1000 nM | 
4 | Cc1ccc(CCCCOc2ccc3c(O)c([N+](=O)[O-])c(=O)oc3c2)cc1 [Example 123, 4-Hydroxy-7-(4-[4-methylphenyl]butoxy)-3-nitrocoumarin] | 1000 nM | 
5 | O=c1oc2cc(OCCOc3ccccc3)ccc2c(O)c1[N+](=O)[O-] [Example 126, 4-Hydroxy-3-nitro-7-(2-phenoxyethoxy) coumarin] | 10000 nM | 
6 | O=c1oc2ccc(OCCCOc3ccccc3)cc2c(O)c1[N+](=O)[O-] [Example 128, 4-Hydroxy-3-nitro-6-(3-phenoxypropoxy) coumarin] | 1000 nM | 
7 | CCCc1c(OCCCOc2ccccc2)ccc2c(O)c([N+](=O)[O-])c(=O)oc12 [Example 131, 4-Hydroxy-3-nitro-7-(3-phenoxy-propoxy) 8-n-propylcoumarin] | 1000 nM | 
8 | CCc1cc2c(O)c([N+](=O)[O-])c(=O)oc2cc1OCCCOc1ccccc1 [Example 132, 6-Ethyl-4-hydroxy-3-nitro-7-(3-phenoxy-propoxy) coumarin] | 10000 nM | 
9 | O=c1oc2cc(OCCCOc3ccc(Cl)cc3)ccc2c(O)c1[N+](=O)[O-] [Example 133, 7-(3-[4-Chlorophenoxy]propxy-4-hydroxy-3-nitrocoumarin] | 1000 nM | 
10 | COC(=O)c1ccc(OCCCOc2ccc3c(O)c([N+](=O)[O-])c(=O)oc3c2)cc1 [Example 135, 7-(3-[4-Carbomethoxyphenoxy]propoxy)-4-hydroxy-3-nitrocoumarin] | 10000 nM | 
11 | Cc1ccc(OCCCOc2ccc3c(O)c([N+](=O)[O-])c(=O)oc3c2)c([N+](=O)[O-])c1 [Example 137, 4-Hydroxy-7-(3-[4-methyl-2-nitrophenoxy]propoxy)-3-nitrocoumarin] | 10000 nM | 
12 | CC(=O)c1ccc(OCC(O)COc2ccc3c(O)c([N+](=O)[O-])c(=O)oc3c2)c(C)c1O (centres unmarked) [Example 144, 7-(3-[4-Acetyl-3-hydroxy-2-methyl-phenoxy]-2-hydroxy-propoxy)-4-hydroxy-3-nitrocoumarin] | 100 nM | 
13 | O=c1oc2cc(OCCCCOc3ccccc3)ccc2c(O)c1[N+](=O)[O-] [Example 150, 4-Hydroxy-3-nitro-7-(4-phenoxybutoxy)-coumarin] | 1000 nM | 
14 | O=c1oc2ccc(OCCCCCOc3ccccc3)cc2c(O)c1[N+](=O)[O-] [Example 151, 4-Hydroxy-3-nitro-6-(5-phenoxypentoxy)-coumarin] | 1000 nM | 
15 | O=c1oc2cc(OCCCCCOc3ccccc3)ccc2c(O)c1[N+](=O)[O-] [Example 152, 4-Hydroxy-3-nitro-7-(5-phenoxypentoxy)-coumarin] | 1000 nM | 
16 | O=c1oc2ccc(OCCCCCCOc3ccccc3)cc2c(O)c1[N+](=O)[O-] [Example 153, 4-hydroxy-3-nitro-6-(6-phenoxyhexoxy) coumarin] | 100 nM | 
17 | Cc1cccc(OCCCOc2ccc3c(O)c([N+](=O)[O-])c(=O)oc3c2)c1 [Example 156, 4-Hydroxy-7-(3-[3-methylphenoxy]propoxy)-3-nitrocoumarin] | 1000 nM | 
18 | Cc1ccc(OCCCOc2ccc3c(O)c([N+](=O)[O-])c(=O)oc3c2)cc1 [Example 157, 4-Hydroxy-7-(3-[4-methylphenoxy]propoxy)-3-nitrocoumarin] | 1000 nM | 
19 | COc1ccc(OCCCOc2ccc3c(O)c([N+](=O)[O-])c(=O)oc3c2)cc1 [Example 158, 4-Hydroxy-7-(3-[4-methoxyphenoxy]propoxy)-3-nitrocoumarin] | 1000 nM | 
20 | O=c1oc2cc(OCCCOc3ccc(F)cc3)ccc2c(O)c1[N+](=O)[O-] [Example 159, 7-(3-[4-Fluorophenoxy]propoxy)-4-hydroxy-3-nitrocoumarin] | 100 nM | 
21 | N#Cc1ccc(OCCCOc2ccc3c(O)c([N+](=O)[O-])c(=O)oc3c2)cc1 [Example 160, 7-(3[4-Cyanophenoxy]-propoxy)-4-hydroxy-3-nitrocoumarin] | 10000 nM | 
22 | O=c1oc2cc(OCCCOc3ccc4c(c3)CCCC4)ccc2c(O)c1[N+](=O)[O-] [Example 162, 4-Hydroxy-3-nitro-7-(3-[5,6,7,8-tetrahydro-2-naphthyloxy]propoxy) coumarin] | 10000 nM | 
23 | CCCc1ccccc1OCC(O)COc1ccc2c(O)c([N+](=O)[O-])c(=O)oc2c1 (centres unmarked) [Example 163, 4-Hydroxy-7-(2-hydroxy3-[2-n-propylphenoxy]propoxy)-3-nitro-coumarin] | 100 nM | 
24 | N#CC1C(=O)c2ccc(OCCc3ccccc3)cc2C1=O (centres unmarked) [Example 189, 2-Cyano-5-(2-phenylethoxy)indan-1,3-dione] |  | 1000 nM

More lines, now with the values ahead:

Row | IC50 [1] | IC50 [2] | SMILES
25 | 10 nM |  | CCCc1c(OCC(O)COc2ccc3c(O)c([N+](=O)[O-])c(=O)oc3c2)ccc(C(C)=O)c1O (centres unmarked) [Example 114, 7-(3-[4-Acetyl-3-hydroxy-2-n-propylphenoxy]-2-hydroxypropoxy)-4-hydroxy-3-nitrocoumarin]
26 | 10000 nM |  | O=c1oc2ccc(OCCc3ccccc3)cc2c(O)c1[N+](=O)[O-] [Example 115, 4-Hydroxy-3-nitro-6-(2-phenylethoxy) coumarin]
27 | 1000 nM |  | O=c1oc2ccc(OCCCc3ccccc3)cc2c(O)c1[N+](=O)[O-] [Example 118, 4-Hydroxy-3-nitro-6-(3-phenylpropoxy) coumarin]
28 | 1000 nM |  | O=c1oc2cc(OCCCc3ccccc3)ccc2c(O)c1[N+](=O)[O-] [Example 119, 4-Hydroxy-3-nitro-7-(3-phenylpropoxy) coumarin]
29 | 1000 nM |  | CC(=O)c1ccc(CCCOc2ccc3c(O)c([N+](=O)[O-])c(=O)oc3c2)cc1 [Example 120, 7-(3-[4-Acetylphenyl]propoxy)-4-hydroxy-3-nitrocoumarin]
30 | 10000 nM |  | O=c1oc2ccc(OCCOc3ccccc3)cc2c(O)c1[N+](=O)[O-] [Example 125, 4-Hydroxy-3-nitro-6-(2-phenoxyethoxy) coumarin]
31 | 1000 nM |  | O=c1oc2cc(OCCCOc3ccccc3)ccc2c(O)c1[N+](=O)[O-] [Example 129, 4-Hydroxy-3-nitro-7-(3-phenoxypropoxy) coumarin]
32 | 1000 nM |  | Cc1cc(OCCCOc2ccccc2)cc2oc(=O)c([N+](=O)[O-])c(O)c12 [Example 130, 4-Hydroxy-5-methyl-3-nitro-7-(3-phenoxypropoxy)]
33 | 10000 nM |  | O=C(O)c1ccc(OCCCOc2ccc3c(O)c([N+](=O)[O-])c(=O)oc3c2)cc1 [Example 134, 7-(3-[4-Carboxyphenoxy]propoxy)-4-hydroxy-3-nitrocoumarin]
34 | 1000 nM |  | CC(=O)c1ccc(OCCCOc2ccc3c(O)c([N+](=O)[O-])c(=O)oc3c2)cc1 [Example 136, 7-(3-[4-Acetylphenoxy]propoxy)-4-hydroxy-3-nitrocoumarin]
35 | 1000 nM |  | CC(=O)c1ccc(OCCCOc2ccc3c(O)c([N+](=O)[O-])c(=O)oc3c2)cc1O [Example 138, 7-(3-[4-Acetyl-3-hydroxyphenoxy]propoxy)-4-hydroxy-3-nitrocoumarin]
36 | 100 nM |  | CCCc1c(OCCCOc2ccc3c(O)c([N+](=O)[O-])c(=O)oc3c2)ccc(C(C)=O)c1O [Example 139, 7-(3-[4-Acetyl-3-hydroxy-2-n-propylphenoxy]propoxy)-4-hydroxy-3-nitrocoumarin]
37 | 10000 nM |  | O=C(O)c1ccc(OCC(O)COc2ccc3c(O)c([N+](=O)[O-])c(=O)oc3c2)cc1 (centres unmarked) [Example 140, 7-(3-[4-Carboxyphenoxy]-2-hydroxy-propoxy)-4-hydroxy-3-nitrocoumarin]
38 | 10000 nM |  | O=c1oc2cc(OCC(O)COc3ccccc3)ccc2c(O)c1[N+](=O)[O-] (centres unmarked) [Example 141, 4-Hydroxy-7-(2-hydroxy-3-phenoxypropoxy)-3-nitrocoumarin]
39 | 10000 nM |  | CC(=O)c1ccc(OCC(O)COc2ccc3c(O)c([N+](=O)[O-])c(=O)oc3c2)cc1O (centres unmarked) [Example 143, 7-(3-[4-Acetyl-3-hydroxyphenoxy]2-hydroxypropoxy)-4-hydroxy-3-nitrocoumarin]
40 | 10000 nM |  | O=c1oc2cc(OCCCOc3ccc(-c4ccccc4)cc3)ccc2c(O)c1[N+](=O)[O-] [Example 161, 4-Hydroxy-7-(3-[4-phenylphenoxy]propoxy)-3-nitro-coumarin]
41 |  | 1000 nM | Cc1cc2c(cc1OCCCOc1ccccc1)C(=O)C([N+](=O)[O-])C2=O (centres unmarked) [Example 185, 5-Methyl-2-nitro-6-(3-phenoxypropoxy)indan-1,3-dione]
